Columns and labels:
Mcl-1 = Mcl-1 (Homo sapiens (Human), UniProt Q07820); conditions: cited from earlier work
[1] = test system: BCL-2-dependent acute lymphoblastic leukemia (ALL) cell line RS4; 11 with G101V mutation; experiment: In vitro anti-proliferation assay (ATPlite) in RS4; 11 with G101V mutation; format: cell-based; conditions: RS4-11; about 72 hours incubation, medium with 5% FBS or 10% normal human serum, ATPlite luminescence
Summary of the method: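 About 1×10^4 cells per well exposed to a compound dose range for about 72 h in medium with 5% FBS or 10% normal human serum. ATP content read by ATPlite luminescence after lysis. IC50 derived from dose-response.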

DoHH2 xenograft = conditions: single agent or in combination with Bendamustine and other agents; cited from earlier work
[2] = test system: CLL who have 17p deletion; conditions: Human Phase I and II data; cited from earlier work
RS4; 11 cells = conditions: cited from earlier work
CLL = conditions: average; read-out: average EC50, apoptosis in CLL; cited from earlier work
RS4; 11 xenografts = conditions: single dose of 100 mg/kg; cited from earlier work
Granta-519 xenograft = conditions: single agent or in combination with Bendamustine and other agents; cited from earlier work
SCLC H146 cell line = conditions: read-out: IC50 against SCLC H146 cell line; cited from earlier work
H345 xenograft = conditions: 100 mg/kg/day, H345 xenograft model; cited from earlier work
circulating platelets = conditions: clinical trial, patients; cited from earlier work
Bcl-w = Bcl-w (Homo sapiens (Human), UniProt Q92843); conditions: cited from earlier work
Sequence of Bcl-w (Q92843 whole entry): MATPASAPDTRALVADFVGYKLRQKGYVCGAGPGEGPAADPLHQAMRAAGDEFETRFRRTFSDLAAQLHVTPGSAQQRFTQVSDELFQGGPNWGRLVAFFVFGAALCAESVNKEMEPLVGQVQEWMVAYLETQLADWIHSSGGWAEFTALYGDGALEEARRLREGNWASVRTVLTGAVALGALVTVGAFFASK

[3] = test system: xenograft models of small-cell lung cancer and acute lymphoblastic leukemia; conditions: oral administration, alone; cited from earlier work
[4] = in vivo; cited from earlier work
established tumors = conditions: mouse, in vivo; cited from earlier work
[5] = cited from earlier work

Sequence of Mcl-1 (Q07820 whole entry): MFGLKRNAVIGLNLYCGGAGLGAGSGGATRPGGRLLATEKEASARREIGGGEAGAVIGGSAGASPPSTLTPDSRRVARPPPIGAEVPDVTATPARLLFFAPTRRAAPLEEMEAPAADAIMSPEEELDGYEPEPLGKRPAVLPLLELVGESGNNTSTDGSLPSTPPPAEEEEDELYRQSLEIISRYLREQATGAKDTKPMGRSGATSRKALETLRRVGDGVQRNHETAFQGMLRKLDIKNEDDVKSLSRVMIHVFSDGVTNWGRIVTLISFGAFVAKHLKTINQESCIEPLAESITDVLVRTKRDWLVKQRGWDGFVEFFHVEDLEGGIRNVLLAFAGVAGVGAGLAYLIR

CC1(C)CCC(CN2CCN(c3ccc(C(=O)NS(=O)(=O)c4ccc(NCC5CCOCC5)c([N+](=O)[O-])c4)c(Oc4cnc5[nH]ccc5c4)c3)CC2)=C(c2ccc(Cl)cc2)C1 [ABT-199]
activity to Mcl-1 (Mcl-1): no activity | IC50 [1]: 1200 nM | xenograft growth DoHH2 (DoHH2 xenograft): inhibits xenograft growth | clinical efficacy [2]: highly efficacious | EC50 (RS4; 11 cells): 8 nM | apoptosis in RS4; 11 cells (RS4; 11 cells; cytochrome c release, caspase activation, accumulation of sub-G0/G1 DNA): induces a rapid apoptosis | EC50 (CLL): 3 nM | maximal tumor growth inhibition (RS4; 11 xenografts): 95% | tumor growth delay (RS4; 11 xenografts): 152% | xenograft growth Granta-519 (Granta-519 xenograft): inhibits xenograft growth

CC1(C)CCC(c2ccc(Cl)cc2)=C(CN2CCN(c3ccc(C(=O)NS(=O)(=O)c4ccc(N[C@H](CCN5CCOCC5)CSc5ccccc5)c(S(=O)(=O)C(F)(F)F)c4)cc3)CC2)C1 [ABT-263]
IC50 (SCLC H146 cell line): 110 nM | TGI (H345 xenograft): 80% | treated tumors indicating at least a 50% reduction in tumor volume (H345 xenograft): 20% | effect on number of circulating platelets (circulating platelets): rapid, concentration-dependent decrease in the number of circulating platelets | Ki (Bcl-w): 1 nM | tumor regression [3]: complete tumor regressions | oral bioavailability [4]: orally bioavailable

CN(C)CC[C@H](CSc1ccccc1)Nc1ccc(S(=O)(=O)NC(=O)c2ccc(N3CCN(Cc4ccccc4-c4ccc(Cl)cc4)CC3)cc2)cc1[N+](=O)[O-] [ABT-737]
efficacy in animal models (established tumors): improves survival, causes regression of established tumors, and produces cures in a high percentage of the mice | aqueous solubility [5]: low aqueous solubility | oral bioavailability [4]: not orally bioavailable

Reference: US20240166646A1, “1H-PYRROLO[2,3-B]PYRIDINE DERIVATIVES AS BCL-2 INHIBITORS FOR THE TREATMENT OF NEOPLASTIC AND AUTOIMMUNE DISEASES” (Newave Pharmaceutical Inc., priority 2020, published 2024)
